From patent publication EP1063290A1, “NOVEL DICARBONYLREDUCTASE AND GENE ENCODING THE SAME” (TAISHO PHARMACEUTICAL CO., LTD, priority 1998, dated 1999) come the findings set out here.

A word on the inhibition: it is the share of the control response that was lost under treatment.

Read-outs that look alike come from different tables or passages of the source.

In assay [1] the target is T1, mouse DCR1 (Mus musculus, UniProt Q91X52).
T1 construct: made in house; host or cells: E. coli K12
Put plainly: Inhibition of the enzyme reaction. Type of assay: biochemical. From the text:
(§1) Two enzymes were used here, mouse DCR1 and hamster liver diacetyl reductase (Hamster DR).

Assay [2] concerns the target T2, hamster liver diacetyl reductase (Hamster DR) (Mesocricetus auratus, UniProt Q91XV4).
T2 construct: from tissue; host or cells: hamster liver
As to the kind of experiment: Inhibition of the enzyme reaction. Format: biochemical. The conditions noted are these: for inhibition at 100 µM / inhibition at 1000 µM: read-out: Inhibition (%) Hamster DR.
Excerpt: as §1

Assay [3] has as its system dicarbonyl reductase of the invention. As to the kind of experiment: Substrate reactivity features summarised from Tables 1, 2 and 3. Type of assay: biochemical. The conditions noted are these: summary in words of Tables 1, 2 and 3.
The target of assay [4] is protein hDCR1 (Homo sapiens, UniProt Q7Z4W1). As to the kind of experiment: Dicarbonyl reductase activity assay: substrate specificity (NAD(P)H oxidation at 340 nm). The settings on record: against a reference of 100 for diacetyl. Here is the method:
(§2) The enzyme activity assay method is not particularly restricted, and it may be based on the activity assay method for mouse carbonyl reductase (CR) (Eur. J. Biochem. 22, 381-387(1995)). The enzyme used here was an expressed recombinant enzyme. • (a) Substrate specificity: In order to determine the substrate specificity, there may be used a hydrocarbon system including various ketone, aldehyde and ester groups, or an aromatic compound.
The reaction mixture (total: 2.0 ml) comprised an 80 mM potassium phosphate solution (pH 7.0 or 6.0), 0.1 mM NADPH or NADH and a carbonyl substrate or enzyme (50 µl) (10.1 µg or 3.7 µg of hDCR1).
The oxidation rate for NAD(P)H was measured at 340 nm.
One unit of enzyme activity was defined as that which catalyzed oxidation of 1 µmol of NAD(P)H in one minute at 25°C.

Assay [5] concerns the target protein DCR1 (Mus musculus, UniProt Q91X52). Put plainly: Dicarbonyl reductase activity assay: substrate specificity and rate constants (NAD(P)H oxidation at 340 nm). The conditions noted are these: for substrate ranking (smallest Km values, higher catalyst efficiency Vmax/Km): mouse enzyme, Table 2, result in words. Here is the method:
as §2
• (1) This was assayed under the following conditions. The reaction mixture (total: 2.0 ml) comprised an 80 mM potassium phosphate solution (pH 7.0 or 6.0), 0.1 mM NADPH or NADH and a carbonyl substrate or enzyme (50 µl) (10.1 µg or 3.7 µg of glomerin B). The oxidation rate for NAD(P)H was measured at 340 nm.

Assay [6] concerns the target T3, dicarbonyl reductase of the invention (Mus musculus, UniProt Q91X52).
T3 construct: made in house; host or cells: E. coli K12
As to the kind of experiment: Effects of metal ions and inhibitors on residual enzyme activity. Format: biochemical. The conditions noted are these: after treating the enzyme with metals and inhibitors. Here is the method:
However, since one of their substrates, NADPH, is degraded at below pH 5, activity assay is not possible in that range when NADPH is used and the peak cannot be determined. The examples were therefore carried out at near pH 7, although the optimum pH is not limited to near 7. • (7) pH stability: For example, DCR1 and hDCR1 are incubated for 3 hours at 25°C in buffer solutions with different pH values, and the residual activity is then measured and compared and recorded as relative activity with respect to the value at pH 8.0 with no incubation. • (8) Effects of metal ions and inhibitors: After treating the enzyme with different metals and inhibitors, the residual activity was evaluated.

Setting [7] is: compound concentration 0.1 mM, read-out: Inhibition (%) CDR1.
Setting [8] is: substrate concentration 1,000 μM.
[9] abbreviates: substrate concentration 1,000 μM, against a reference of 100 for diacetyl.
The mark [10] stands for this setting: compound concentration 1 mM, read-out: Inhibition (%) CDR1.
[11] abbreviates: compound concentration 0.001 mM.

T2 sequence (Q91XV4 whole entry): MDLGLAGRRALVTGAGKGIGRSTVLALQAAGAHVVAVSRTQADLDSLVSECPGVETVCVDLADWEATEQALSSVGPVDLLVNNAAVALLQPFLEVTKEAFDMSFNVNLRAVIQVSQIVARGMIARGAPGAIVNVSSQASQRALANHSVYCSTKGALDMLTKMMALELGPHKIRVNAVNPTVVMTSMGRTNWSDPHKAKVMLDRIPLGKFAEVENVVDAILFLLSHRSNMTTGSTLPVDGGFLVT
T1 sequence (Q91X52 whole entry): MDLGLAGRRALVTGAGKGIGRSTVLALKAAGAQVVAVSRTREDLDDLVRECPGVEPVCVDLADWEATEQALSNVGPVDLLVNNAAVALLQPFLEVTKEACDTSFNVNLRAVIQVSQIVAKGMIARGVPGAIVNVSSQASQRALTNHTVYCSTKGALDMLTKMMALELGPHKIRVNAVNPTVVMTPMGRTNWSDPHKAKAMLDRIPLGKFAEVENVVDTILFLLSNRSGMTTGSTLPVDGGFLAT
protein DCR1, sequence (Q91X52 whole entry): as above
protein hDCR1, sequence (Q7Z4W1 whole entry): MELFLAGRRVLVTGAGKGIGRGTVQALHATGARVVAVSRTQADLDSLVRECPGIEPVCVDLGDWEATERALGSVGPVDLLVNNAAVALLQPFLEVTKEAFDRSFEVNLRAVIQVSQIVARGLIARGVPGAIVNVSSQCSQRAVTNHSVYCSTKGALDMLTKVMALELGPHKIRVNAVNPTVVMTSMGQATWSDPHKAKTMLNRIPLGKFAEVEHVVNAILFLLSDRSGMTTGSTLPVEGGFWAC
T3 sequence (Q91X52 whole entry): as the sequence (Q91X52 whole entry) above

As for `O=C(O)c1ccncc1` [Isonicotinic acid], the inhibition at 100 µM turned out to be 0% in assay [1] (setting [7]) and 4% in assay [2] (compound concentration 0.1 mM).

On to `CCC(=O)C(C)=O` [2,3-Pentanedione], for which the “reactivity (as substrate)” value in assay [3] was “strong reactivity”. In addition, the results for the “RA (%) relative activity” value in assay [4] (setting [8]) and in assay [5] were 167% and 163%, respectively.

As for `CCCC(=O)C(C)=O` [2,3-Hexanedione], the “reactivity (as substrate)” value in assay [3] is recorded as “strong reactivity”. Moreover, the entries for the “RA (%) relative activity” value in assay [4] (setting [8]) and in assay [5] (setting [9]) were 168% and 108%, respectively.

In the case of `[Cl-].[Cl-].[Mg+2]` [MgCl2], in assay [6], the “effect on the enzyme (residual activity)” value was “virtually no effect”.

Consider `NC(=O)c1ccccc1` [Benzamide], for which the inhibition at 1000 µM in assay [1] (setting [10]) was 18%; in assay [2] (compound concentration 1 mM) it was 43%.

As to `Nc1ccccc1C(=O)O` [Anthranilic acid], the values for the inhibition at 100 µM in assay [1] (read-out: Inhibition (%) CDR1) and in assay [2] were 0% and 42%, respectively.

On to `CCC1(CC)C(=O)NC(=O)NC1=O` [Barbital], for which the inhibition at 1000 µM in assay [1] (read-out: Inhibition (%) CDR1) amounted to 0%; in assay [2], 5%.

On to `CCCCC(=O)C(C)=O` [2,3-Heptanedione], for which the “reactivity (as substrate)” value in assay [3] is “strong reactivity”. The “RA (%) relative activity” value in assay [4] (setting [8]) turned out to be 174%; in assay [5] (setting [9]), 134%.

As for `C=C(CC)C(=O)c1ccc(OCC(=O)O)c(Cl)c1Cl` [Ethacrynic acid], the inhibition at 100 µM in assay [1] (setting [7]) stood at 0%; in assay [2] (compound concentration 0.1 mM) it was 3%.

Take `CC(=O)C(=O)c1ccccc1` [1-Phenyl-1,2-propanedione]: in assay [3], the “reactivity (as substrate)” value is “strong reactivity”. Also, the “RA (%) relative activity” value in assay [4] (setting [8]) amounted to 65%; in assay [5] (setting [9]) it was 148%. The “substrate ranking (smallest Km values, higher catalyst efficiency Vmax/Km)” value in assay [5] is “best substrates”.

Regarding `NC(=O)c1ccc(O)cc1` [4-Hydroxybenzamide], the inhibition at 1000 µM was determined as 44% in assay [1] (read-out: Inhibition (%) CDR1) and 19% in assay [2].

On to `O=C(CBr)C(=O)CBr` [1,4-dibromo-2,3-butanedione], for which, in assay [3], the “reactivity (as substrate)” value is listed as “strong reactivity”. For the same compound, the “RA (%) relative activity” value in assay [4] (setting [8]) was 133%.

As for Cibacron blue dye, in assay [1] (setting [11]), the “Inhibition (%) CDR1” value came out at 21%. Also, the “Inhibition (%) Hamster DR” value in assay [2] (setting [11]) came out at 18%.

In the case of `CC(C)CN` [Isobutylamine], the inhibition at 1000 µM in assay [1] (setting [10]) came out at 16%; in assay [2] (compound concentration 1 mM) it was 50%.

As for `O=C(O)CC1(CC(=O)O)CCCC1` [Tetramethyleneglutaric acid], the inhibition at 100 µM is 0% in assay [1] (read-out: Inhibition (%) CDR1) and 63% in assay [2].

Take `O=C1C(=O)c2cccc3cccc1c23` [Acenaphthenequinone]: in assay [3], the “reactivity (as substrate)” value is “strong reactivity”. The “RA (%) relative activity” value in assay [4] (substrate concentration 25 μM) stood at 181%; in assay [5] (substrate concentration 25 μM, against a reference of 100 for diacetyl) it was 14.1%.

As to `O=C1Nc2ccccc2C1=O` [Isatin], the “reactivity (as substrate)” value in assay [3] is “strong reactivity”. The “RA (%) relative activity” value is recorded as 252% in assay [4] (substrate concentration 500 μM) and 106.7% in assay [5] (substrate concentration 400 μM, against a reference of 100 for diacetyl).

On to `[Ca+2].[Cl-].[Cl-]` [CaCl2], for which the “effect on the enzyme (residual activity)” value in assay [6] was “virtually no effect”.

As to `c1cn[nH]c1` [Pyrazole], the inhibition at 10000 µM amounted to 29% in assay [1] (compound concentration 10 mM, read-out: Inhibition (%) CDR1) and 5% in assay [2] (compound concentration 10 mM).

In the case of `c1cnc2c(c1)ccc1cccnc12` [o-Phenanthroline], the inhibition at 1000 µM in assay [1] (read-out: Inhibition (%) CDR1) was 8%; in assay [2], 0%.

As to `O=c1c(O)c(-c2ccc(O)c(O)c2)oc2cc(O)cc(O)c12` [Quercitin], the inhibition at 100 µM in assay [1] (setting [7]) is 50%; in assay [2] (compound concentration 0.1 mM), 33%.

Turning to `O=C1NC(=O)C(c2ccccc2)(c2ccccc2)N1` [Diphenlhydantoin], the inhibition at 100 µM in assay [1] (read-out: Inhibition (%) CDR1) came out at 17%; in assay [2], 2%.

On to `CCC(=O)C(=O)CC` [3,4-Hexanedione], for which the “reactivity (as substrate)” value in assay [3] is reported as “strong reactivity”. Moreover, the figures for the “RA (%) relative activity” value in assay [4] (setting [8]) and in assay [5] (setting [9]) were 170% and 232%, respectively. The “substrate ranking (smallest Km values, higher catalyst efficiency Vmax/Km)” value in assay [5] was “best substrates”.

Regarding `O=C(O)c1ccccc1` [Benzoic acid], the inhibition at 100 µM in assay [1] (read-out: Inhibition (%) CDR1) is 32%; in assay [2], 59%.
